Results on 19 molecules are retold here after US8952157B2, “Apoptosis-inducing agents for the treatment of cancer and immune and autoimmune diseases” (AbbVie Inc., priority 2008, dated 2015).

Some results are limits rather than exact numbers.

The target in the assay is GST-Bcl-2 (Homo sapiens (Human), UniProt P10415). The experiment in a line: Time Resolved-Fluorescence Resonance Energy Transfer (TR-FRET) Bcl-2 binding assay. The following applies: GST-Bcl-2 1 nM, F-Bak peptide probe 100 nM, Tb-anti-GST antibody 1 nM; Ki by Wang's equation. Put shortly: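 Ki values derived from TR-FRET displacement of F-Bak peptide from GST-Bcl-2, detected with Tb-labelled anti-GST antibody (ex 340, em 520/495 nm). Compound dilution series started at 50 μM (2× starting concentration); room-temperature incubation 3 hours.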
Chain of GST-Bcl-2 (P10415 whole entry): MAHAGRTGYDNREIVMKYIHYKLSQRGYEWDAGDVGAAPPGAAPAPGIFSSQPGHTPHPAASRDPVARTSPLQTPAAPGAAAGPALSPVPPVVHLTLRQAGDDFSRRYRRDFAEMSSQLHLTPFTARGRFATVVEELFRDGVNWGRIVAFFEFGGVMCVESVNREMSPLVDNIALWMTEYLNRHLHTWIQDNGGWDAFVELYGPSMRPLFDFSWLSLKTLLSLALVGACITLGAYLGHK
(TR-FRET usually uses a lanthanide donor and a delayed reading to cut background.)
Broadly, the Ki is a measure of affinity in units of concentration, obtained from inhibition or displacement. The molecule `CN1CCC(O)(CNc2ccc(S(=O)(=O)NC(=O)c3ccc(N4CCN(CC5=C(c6ccc(Cl)cc6)CC(C)(C)CC5)CC4)cc3Oc3cccc(F)c3)cc2[N+](=O)[O-])CC1` [Example 198, 4-(4-{[2-(4-chlorophenyl)-4,4-dimethylcyclohex-1-en-1-yl]methyl}piperazin-1-yl)-2-(3-fluorophenoxy)-N-[(4-{[(4-hydroxy-1-methylpiperidin-4-yl)methyl]amino}-3-nitrophenyl)sulfonyl]benzamide] came in with a Ki of less than 0.01 nM.
Under `CN1CCC(Nc2ccc(S(=O)(=O)NC(=O)c3ccc(N4CCN(CC5=C(c6ccc(Cl)cc6)CC(C)(C)CC5)CC4)cc3Oc3cccc4c3CC(=O)N4)cc2[N+](=O)[O-])CC1` [Example 288, 4-(4-{[2-(4-chlorophenyl)-4,4-dimethylcyclohex-1-en-1-yl]methyl}piperazin-1-yl)-N-({4-[(1-methylpiperidin-4-yl)amino]-3-nitrophenyl}sulfonyl)-2-[(2-oxo-2,3-dihydro-1H-indol-4-yl)oxy]benzamide] stands 0.017 nM; under `O=C(NS(=O)(=O)c1ccc(NCCCN2CCOCC2)c([N+](=O)[O-])c1)c1ccc(N2CCN(Cc3ccccc3-c3ccc(Cl)cc3)CC2)cc1Oc1ccc(-c2cccnc2)cc1` [Example 100, 4-(4-((4′-chloro-1,1′-biphenyl-2-yl)methyl)piperazin-1-yl)-N-((4-((3-morpholin-4-ylpropyl)amino)-3-nitrophenyl)sulfonyl)-2-(4-pyridin-3-ylphenoxy)benzamide], 113 nM.
Under `CC1(C)CCC(CN2CCN(c3ccc(C(=O)NS(=O)(=O)c4ccc(NC5CCN(C6CCOCC6)CC5)c([N+](=O)[O-])c4)c(Oc4ccc5[nH]cc(Cl)c5c4)c3)CC2)=C(c2ccc(Cl)cc2)C1` [Example 281, 2-[(3-chloro-1H-indol-5-yl)oxy]-4-(4-{[2-(4-chlorophenyl)-4,4-dimethylcyclohex-1-en-1-yl]methyl}piperazin-1-yl)-N-({3-nitro-4-[(1-tetrahydro-2H-pyran-4-ylpiperidin-4-yl)amino]phenyl}sulfonyl)benzamide] stands 0.111 nM; under `CC1(C)CCC(CN2CCN(c3ccc(C(=O)NS(=O)(=O)c4ccc(NCC5CCOCC5)c([N+](=O)[O-])c4)c(Oc4cncc(N)c4)c3)CC2)=C(c2ccc(Cl)cc2)C1` [Example 279, 2-[(5-aminopyridin-3-yl)oxy]-4-(4-{[2-(4-chlorophenyl)-4,4-dimethylcyclohex-1-en-1-yl]methyl}piperazin-1-yl)-N-({3-nitro-4-[(tetrahydro-2H-pyran-4-ylmethyl)amino]phenyl}sulfonyl)benzamide], 1.7 nM; under `CC1(C)CCC(CN2CCN(c3ccc(C(=O)NS(=O)(=O)c4ccc(NC5CCN(C6CCOCC6)CC5)c([N+](=O)[O-])c4)c(Oc4cc(F)cc5[nH]ccc45)c3)CC2)=C(c2ccc(Cl)cc2)C1` [Example 210, 4-(4-{[2-(4-chlorophenyl)-4,4-dimethylcyclohex-1-en-1-yl]methyl}piperazin-1-yl)-2-[(6-fluoro-1H-indol-4-yl)oxy]-N-({3-nitro-4-[(1-tetrahydro-2H-pyran-4-ylpiperidin-4-yl)amino]phenyl}sulfonyl)benzamide], 0.02 nM.
Under `Cn1c(=O)[nH]c2cccc(Oc3cc(N4CCN(CC5=C(c6ccc(Cl)cc6)CC(C)(C)CC5)CC4)ccc3C(=O)NS(=O)(=O)c3ccc(NCC4CCOCC4)c([N+](=O)[O-])c3)c21` [Example 368, 4-(4-{[2-(4-chlorophenyl)-4,4-dimethylcyclohex-1-en-1-yl]methyl}piperazin-1-yl)-2-[(3-methyl-2-oxo-2,3-dihydro-1H-benzimidazol-4-yl)oxy]-N-({3-nitro-4-[(tetrahydro-2H-pyran-4-ylmethyl)amino]phenyl}sulfonyl)benzamide] stands less than 0.01 nM; under `CC1(C)CCC(CN2CCN(c3ccc(C(=O)NS(=O)(=O)c4cnc(OCCN5CCOCC5)c(C#N)c4)c(Oc4cc5cc[nH]c5cc4F)c3)CC2)=C(c2ccc(Cl)cc2)C1` [Example 310, 4-(4-{[2-(4-chlorophenyl)-4,4-dimethylcyclohex-1-en-1-yl]methyl}piperazin-1-yl)-N-{[5-cyano-6-(2-morpholin-4-ylethoxy)pyridin-3-yl]sulfonyl}-2-[(6-fluoro-1H-indol-5-yl)oxy]benzamide], 0.155 nM.
`COc1ccc(Cn2nnc3c(Oc4cc(N5CCN(CC6=C(c7ccc(Cl)cc7)CC(C)(C)CC6)CC5)ccc4C(=O)NS(=O)(=O)c4ccc(NCC5CCOCC5)c([N+](=O)[O-])c4)cccc32)cc1` [Example 342, 4-(4-{[2-(4-chlorophenyl)-4,4-dimethylcyclohex-1-en-1-yl]methyl}piperazin-1-yl)-2-{[1-(4-methoxybenzyl)-1H-1,2,3-benzotriazol-4-yl]oxy}-N-({3-nitro-4-[(tetrahydro-2H-pyran-4-ylmethyl)amino]phenyl}sulfonyl)benzamide] showed a Ki of 3.34 nM.
On to `CC1(C)CCC(CN2CCN(c3ccc(C(=O)NS(=O)(=O)c4ccc(NCC5CCOCC5)c([N+](=O)[O-])c4)c(Oc4cnc(N)c(C(N)=O)c4)c3)CC2)=C(c2ccc(Cl)cc2)C1` [Example 351, 2-amino-5-(5-(4-{[2-(4-chlorophenyl)-4,4-dimethylcyclohex-1-en-1-yl]methyl}piperazin-1-yl)-2-{[({3-nitro-4-[(tetrahydro-2H-pyran-4-ylmethyl)amino]phenyl}sulfonyl)amino]carbonyl}phenoxy)nicotinamide], for which the Ki is 2.84 nM.
Under `CC1(C)CCC(CN2CCN(c3ccc(C(=O)NS(=O)(=O)c4ccc(NCCCN5CCNC(=O)C5)c([N+](=O)[O-])c4)c(Oc4cc5cc[nH]c5cc4F)c3)CC2)=C(c2ccc(Cl)cc2)C1` [Example 233, 4-(4-{[2-(4-chlorophenyl)-4,4-dimethylcyclohex-1-en-1-yl]methyl}piperazin-1-yl)-2-[(6-fluoro-1H-indol-5-yl)oxy]-N-[(3-nitro-4-{[3-(3-oxopiperazin-1-yl)propyl]amino}phenyl)sulfonyl]benzamide] stands 0.037 nM; under `CC1(C)CCC(CN2CCN(c3ccc(C(=O)NS(=O)(=O)c4ccc(NCCCN5CCOCC5)c([N+](=O)[O-])c4)c(Oc4cccc(Cl)c4F)c3)CC2)=C(c2ccc(Cl)cc2)C1` [Example 148, 2-(3-chloro-2-fluorophenoxy)-4-(4-{[2-(4-chlorophenyl)-4,4-dimethylcyclohex-1-en-1-yl]methyl}piperazin-1-yl)-N-({4-[(3-morpholin-4-ylpropyl)amino]-3-nitrophenyl}sulfonyl)benzamide], 0.106 nM.
Molecule `CN1CCC(Nc2ccc(S(=O)(=O)NC(=O)c3ccc(N4CCN(CC5=C(c6ccc(Cl)cc6)CC(C)(C)CC5)CC4)cc3Oc3cccc(O)c3Cl)cc2[N+](=O)[O-])CC1` [Example 171, 2-(2-chloro-3-hydroxyphenoxy)-4-(4-{[2-(4-chlorophenyl)-4,4-dimethylcyclohex-1-en-1-yl]methyl}piperazin-1-yl)-N-({4-[(1-methylpiperidin-4-yl)amino]-3-nitrophenyl}sulfonyl)benzamide] yielded an inhibition constant Ki of 0.066 nM.
In turn, `CC1(C)CCC(CN2CCN(c3ccc(C(=O)NS(=O)(=O)c4ccc(NCC5CCOCC5)c([N+](=O)[O-])c4)c(Oc4ccccc4-c4ccn[nH]4)c3)CC2)=C(c2ccc(Cl)cc2)C1` [Example 408, 4-(4-{[2-(4-chlorophenyl)-4,4-dimethylcyclohex-1-en-1-yl]methyl}piperazin-1-yl)-N-({3-nitro-4-[(tetrahydro-2H-pyran-4-ylmethyl)amino]phenyl}sulfonyl)-2-[2-(1H-pyrazol-5-yl)phenoxy]benzamide] came in with a Ki of 1.16 nM.
Molecule `CN(C)CC(=O)N1CCC(F)(COc2ncc(S(=O)(=O)NC(=O)c3ccc(N4CCN(CC5=C(c6ccc(Cl)cc6)CC(C)(C)CC5)CC4)cc3Oc3cnc(N)c(Cl)c3)cc2Cl)CC1` [Example 393, 2-[(6-amino-5-chloropyridin-3-yl)oxy]-N-[(5-chloro-6-{[1-(N,N-dimethylglycyl)-4-fluoropiperidin-4-yl]methoxy}pyridin-3-yl)sulfonyl]-4-(4-{[2-(4-chlorophenyl)-4,4-dimethylcyclohex-1-en-1-yl]methyl}piperazin-1-yl)benzamide] had a Ki of less than 0.01 nM.
Under “2-(2-chlorophenoxy)-4-(4-{([2-(4-chlorophenyl)-4,4-dimethylcyclohex-1-en-1-yl]methyl}piperazin-1-yl)-N-({4-[(1,4-dimethylpiperidin-4-yl)amino]-3-nitrophenyl}sulfonyl)benzamide [Example 168]” stands 28.3 nM; under `COCCN1CCC(Nc2ccc(S(=O)(=O)NC(=O)c3ccc(N4CCN(CC5=C(c6ccc(Cl)cc6)CC(C)(C)CC5)CC4)cc3Oc3cccc(Cl)c3)cc2[N+](=O)[O-])CC1` [Example 173, 2-(3-chlorophenoxy)-4-(4-{[2-(4-chlorophenyl)-4,4-dimethylcyclohex-1-en-1-yl]methyl}piperazin-1-yl)-N-[(4-{[1-(2-methoxyethyl)piperidin-4-yl]amino}-3-nitrophenyl)sulfonyl]benzamide], 0.019 nM.
For the molecule `CC1(C)CCC(CN2CCN(c3ccc(C(=O)NS(=O)(=O)c4ccc(NC5CCN(C6CCOCC6)CC5)c([N+](=O)[O-])c4)c(Oc4cccc(F)c4F)c3)CC2)=C(c2ccc(Cl)cc2)C1` [Example 49, 4-(4-((2-(4-chlorophenyl)-4,4-dimethylcyclohex-1-en-1-yl)methyl)piperazin-1-yl)-2-(2,3-difluorophenoxy)-N-((3-nitro-4-((1-tetrahydro-2H-pyran-4-ylpiperidin-4-yl)amino)phenyl)sulfonyl)benzamide], affinity was put at a Ki of 0.062 nM.
Under `CC1(C)CCC(CN2CCN(c3ccc(C(=O)NS(=O)(=O)c4ccc(NCC5CCOCC5)c([N+](=O)[O-])c4)c(Oc4cccc5[nH]cc(Cl)c45)c3)CC2)=C(c2ccc(Cl)cc2)C1` [Example 266, 2-[(3-chloro-1H-indol-4-yl)oxy]-4-(4-{[2-(4-chlorophenyl)-4,4-dimethylcyclohex-1-en-1-yl]methyl}piperazin-1-yl)-N-({3-nitro-4-[(tetrahydro-2H-pyran-4-ylmethyl)amino]phenyl}sulfonyl)benzamide] stands 0.81 nM.
